Tested on: MDA-MB-231 cells
Assay: Vacuolation of MDA-MB-231 cells caused by inhibition of compounds on PIKfyve (microscopy)
Format: cell-based
Settings: MDA-MB-231 cells
Description: I. Determination of Vacuolation of MDA-MB-231 Cells Caused by Inhibition of Compounds on PIKfyve
When the activity of pikfyve kinase is inhibited, vacuoles will be produced in cytoplasm. By observing the number of vacuoles under a microscope, the ability of compounds to inhibit the activity of pikfyve kinase can be known.
1. Cell plating: cells in logarithmic growth phase were made into a single cell suspension, counted with a cell counter and diluted to a cell concentration of about 2×10^5/mL. Then, the cells were inoculated into a 12-well plate, and cultured in a 37° C., 5% CO2 incubator.
3. Vacuolation test: after 24 and 48 hours of culture, photos were taken under an […] to observe the degree of vacuolation.
(In the table, “+” represents the degree of vacuolation; more “+” indicates more obvious vacuolation; “−” represents no vacuolation)

Row | SMILES | degree of vacuolation, 1 μM, 24 h | degree of vacuolation, 1 μM, 48 h | degree of vacuolation, 10 μM, 24 h | degree of vacuolation, 10 μM, 48 h
1 | Cc1ccc(C(=O)Nc2cccc(OC(F)(F)F)c2)cc1Nc1nc(-c2cccnc2)cn2c(Br)cnc12 [VI-b-4] | − | − | + | +
2 | Cc1ccc(C(=O)Nc2ccc(CN3CCN(C)CC3)c(C(F)(F)F)c2)cc1Nc1nc(-c2ccncc2)nc2cc[nH]c12 [V-a-10] | ++ | ++ | − | −
3 | Cc1ccc(C(=O)Nc2ccc(CN3CCN(C)CC3)c(C(F)(F)F)c2)cc1Nc1cc(-c2cccnc2)nc2[nH]ccc12 [I-a-24] | − | − | − | −
4 | Cc1ccc(C(=O)Nc2cccc(C(F)(F)F)c2)cc1Nc1nc(-c2ccccc2)nc2c1cnn2C [III-b-2] | − | − | − | −
5 | O=C(Nc1cccc(C(F)(F)F)c1)c1cccc(Nc2nc(-c3cccnc3)nc3cc[nH]c23)c1 [V-a-1] | − | − | + | +
6 | Cc1ccc(C(=O)Nc2cccc(Cl)c2)cc1Nc1cc(-c2cccnc2)nc2[nH]ccc12 [I-a-35] | + | ++ | + | ++
7 | Cc1ccc(C(=O)Nc2cccc(C(F)(F)F)c2)cc1Nc1cc(-c2ccncc2)nc2[nH]ccc12 [I-a-21] | − | − | − | −
8 | COc1ccc(Br)cc1NC(=O)Nc1cccc(-c2nc(NCc3cccnc3)c3c(ccn3C)n2)c1 [V-b-29] | + | − | − | −
9 | Cc1ccc(C(=O)Nc2cccc(OC(F)(F)F)c2)cc1Nc1cc(-c2cccnc2)nc2[nH]ccc12 [I-a-33] | + | ++ | + | ++
10 | O=C(Nc1cccc(C(F)(F)F)c1)c1cccc(Nc2cc(-c3cccnc3)nc3[nH]ccc23)c1 [I-a-30] | + | + | + | +
11 | Cc1ccc(C(=O)Nc2cccc(OC(F)(F)F)c2)cc1Nc1nc(-c2cccnc2)nc2c1ncn2C [IV-b-11] | + | + |  | +
12 | Cc1ccc(C(=O)Nc2ccc(CN3CCN(C)CC3)c(C(F)(F)F)c2)cc1Nc1nc(-c2ccncc2)nc2[nH]cnc12 [IV-a-5] | + | − | + | −
13 | Cc1ccc(C(=O)Nc2ccc(CN3CCN(C)CC3)c(C(F)(F)F)c2)cc1Nc1nc(-c2ccncc2)cn2ccnc12 [VI-a-8] |  | − |  | −
14 | Cc1ccc(C(=O)Nc2ccc(CN3CCN(C)CC3)c(C(F)(F)F)c2)cc1Nc1nc(-c2cccnc2)nc2ccn(C)c12 [V-b-7] | + | + | − | −
15 | Cc1ccc(NC(=S)Nc2cccc(C(F)(F)F)c2)cc1Nc1cc(-c2cccnc2)nc2[nH]ccc12 [I-a-40] | + | + | + | +
16 | Cc1ccc(C(=O)Nc2ccc(CN3CCN(C)CC3)c(C(F)(F)F)c2)cc1Nc1cc(-c2cccnc2)nc2c1ccn2C [I-b-5] | − | − | + | +
17 | CN1CCN(Cc2cc(NC(=O)c3cccc(Nc4cc(-c5ccncc5)nc5[nH]ccc45)c3)cc(C(F)(F)F)c2)CC1 [I-a-27] | + | − | + | −
18 | O=C(Nc1cccc(C(F)(F)F)c1)c1ccc(F)c(Nc2cc(-c3cccnc3)nc3[nH]ccc23)c1 [I-a-38] | + | + | ++ | ++
19 | Cc1ccc(C(=O)Nc2cccc(C(F)(F)F)c2)cc1Nc1nc(-c2cccnc2)nc2ccn(C)c12 [V-b-3] | + | + | ++ | ++
20 | Nc1ccc(NC(=O)c2cccc(Nc3nc(-c4cccnc4)c4[nH]ccc4n3)c2)cc1 [V-c-3] | + | + | ++ | ++
21 | Cc1ccc(NC(=O)c2cccc(C(F)(F)F)c2)cc1Nc1nc(-c2ccncc2)nc2cc[nH]c12 [V-a-4] | − | − | − | −
22 | Cc1cc(NC(=O)c2ccccc2N)ccc1Nc1nc(-c2cccnc2)c2[nH]ccc2n1 [V-c-25] | − | − | − | −
23 | Cc1ccc(C(=O)Nc2ccc(CN3CCN(C)CC3)c(C(F)(F)F)c2)cc1Nc1nc(-c2ccncc2)nc2c1ncn2C [IV-b-10] |  | − |  | −
24 | Cc1ccc(C(=O)Nc2ccc(CN3CCN(C)CC3)c(C(F)(F)F)c2)cc1Nc1nc(-c2cccnc2)nc2c1ncn2C [IV-b-9] |  | − |  | −
25 | COc1cccc(NC(=O)c2ccc(C)c(Nc3cc(-c4cccnc4)nc4[nH]ccc34)c2)c1 [I-a-32] | + | ++ | + | ++
26 | Cc1ccc(NC(=O)c2cccc(C(F)(F)F)c2)cc1Nc1cc(-c2ccncc2)nc2[nH]ccc12 [I-a-10] | − | − | ++ | ++
27 | Cc1ccc(NC(=O)c2cccc(C(F)(F)F)c2)cc1Nc1nc(-c2ccncc2)nc2ccn(C)c12 [V-b-2] | − | − | ++ | ++
28 | Cc1cccc(NC(=O)c2ccc(C)c(Nc3cc(-c4cccnc4)nc4[nH]ccc34)c2)c1 [I-a-34] | + | ++ | + | ++
29 | CN1CCN(Cc2cc(NC(=O)c3cccc(Nc4cc(-c5cccnc5)nc5[nH]ccc45)c3)cc(C(F)(F)F)c2)CC1 [I-a-26] | − | − | − | −

— patent US11352354B2, “Substituted penta-fused hexa-heterocyclic compounds, preparation method therefor, drug combination and use thereof” (Xiamen University, priority 2017, dated 2022)
